Data on 36 compounds can be found in patent US9242981B2, “Fused pyrazole derivatives as novel ERK inhibitors” (Merck Sharp & Dohme Corp., priority 2010, dated 2016).

Sequence of Mouse ERK2 protein (P63085 whole entry): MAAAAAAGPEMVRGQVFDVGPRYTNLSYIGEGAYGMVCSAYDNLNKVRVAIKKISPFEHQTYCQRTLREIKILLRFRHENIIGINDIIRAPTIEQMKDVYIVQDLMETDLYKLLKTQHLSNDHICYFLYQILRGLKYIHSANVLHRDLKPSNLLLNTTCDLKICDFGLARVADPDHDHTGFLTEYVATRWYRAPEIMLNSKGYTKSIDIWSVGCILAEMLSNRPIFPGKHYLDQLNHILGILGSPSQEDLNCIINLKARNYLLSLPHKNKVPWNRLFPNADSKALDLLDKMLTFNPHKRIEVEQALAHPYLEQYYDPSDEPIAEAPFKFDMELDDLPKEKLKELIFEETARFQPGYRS

This assay has as its target Mouse ERK2 protein (Mus musculus (Mouse), UniProt P63085). Description: Coupled MEK1/ERK2 IMAP assay or Active ERK2 IMAP assay. In kind it is biochemical. The settings on record: Table 1, class symbols, 30 μM ATP. As to the method:
14 μl of kinase buffer (10 mM Tris.HCl pH 7.2, 10 mM MgCl2, 0.01% Tween-20, 1 mM DTT) containing 0.4 ng unphosphorylated Mouse ERK2 protein is added to each well of a black 384-well assay plate. […] DMSO concentration during initial incubation is 6.7%. […] DMSO concentration during ERK activation was 4%. After one hour, reactions are terminated by addition of 60 μl IMAP detections beads in binding buffer (Molecular Devices). Binding is allowed to equilibrate for 30 minutes before reading the plate on an LJL Analyst Fluorescence Polarization plate reader.
Activated ERK2 activity was also determined in the IMAP assay format using the procedure outlined above. […] Reactions proceeded for 30 minutes before termination by addition of […] IMAP detection beads in binding buffer. Plates were read as above after 30 minute binding equilibration.
What is called IC50 is the concentration that inhibits the measured activity by half. Compound `COc1cccc(CC(=O)N2CCc3[nH]nc(-c4ccncc4)c3C2)c1` [Compound 3, 4,5,6,7-tetrahydro-5-[(3-methoxyphenyl)acetyl]-3-(4-pyridinyl)-1H-pyrazolo[4,3-c]pyridine] came in with an IC50 of 1000 to 100000 nM.
On to `Nc1nc(CC(=O)N2CCc3[nH]nc(-c4ccncc4)c3C2)cs1` [Compound 5, 5-[(2-amino-4-thiazolyl)-acetyl]-4,5,6,7-tetrahydro-3-(4-pyridinyl)-1H-pyrazolo[4,3-c]pyridine], for which the IC50 fell in the range of 1000 to 100000 nM.
As for `Cn1cnc(CC(=O)N2CCc3[nH]nc(-c4ccncc4)c3C2)c1` [Compound 6, 4,5,6,7-tetrahydro-5-[(1-methyl-1H-imidazol-4-yl)acetyl]-3-(4-pyridinyl)-1H-pyrazolo[4,3-c]pyridine], the figure is 1000 to 100000 nM; as for `O=C(Cc1cccs1)N1CCc2[nH]nc(-c3ccncc3)c2C1` [Compound 7, 4,5,6,7-tetrahydro-3-(4-pyridinyl)-5-(2-thienylacetyl)-1H-pyrazolo[4,3-c]pyridine], 1000 to 100000 nM; as for `O=C(Cc1ccccc1Cl)N1CCc2[nH]nc(-c3ccncc3)c2C1` [Compound 8, 5-[(2-chlorophenyl)acetyl]-4,5,6,7-tetrahydro-3-(4-pyridinyl)-1H-pyrazolo[4,3-c]pyridine], 101 to 1000 nM.
On to `O=C(Cc1cccc(Br)c1)N1CCc2[nH]nc(-c3ccncc3)c2C1` [Compound 9, 5-[(3-bromophenyl)acetyl]-4,5,6,7-tetrahydro-3-(4-pyridinyl)-1H-pyrazolo[4,3-c]pyridine], for which the IC50 fell in the range of 101 to 1000 nM.
As for `COc1ccccc1CC(=O)N1CCc2[nH]nc(-c3ccncc3)c2C1` [Compound 10, 4,5,6,7-tetrahydro-5-[(2-methoxyphenyl)acetyl]-3-(4-pyridinyl)-1H-pyrazolo[4,3-c]pyridine], the figure is 1000 to 100000 nM; as for `Cc1nc(CC(=O)N2CCc3[nH]nc(-c4ccncc4)c3C2)c(C)s1` [Compound 11, 5-[(2,5-dimethyl-4-thiazolyl)acetyl]-4,5,6,7-tetrahydro-3-(4-pyridinyl)-1H-pyrazolo[4,3-c]pyridine], 1000 to 100000 nM.
On to `CC1(C(=O)Nc2ccccc2OCc2cccnc2)CCc2[nH]nc(-c3ccncc3)c2C1` (stereo not drawn) [Compound 14, 4,5,6,7-tetrahydro-5-methyl-3-(4-pyridinyl)-N-[2-(3-pyridinylmethoxy)phenyl]-1H-indazole-5-carboxamide], for which the half-maximal inhibitory concentration (IC50) fell in the range of 1000 to 100000 nM.
As for `COc1ccccc1NC(=O)C1(C)CCc2[nH]nc(-c3ccncc3)c2C1` (stereo not drawn) [Compound 15, 4,5,6,7-tetrahydro-N-(2-methoxyphenyl)-5-methyl-3-(4-pyridinyl)-1H-indazole-5-carboxamide], the figure is 1000 to 100000 nM; as for `CC(C)C(Cn1ccnc1)NC(=O)C1(C)CCc2[nH]nc(-c3ccncc3)c2C1` (stereo not drawn) [Compound 16, 4,5,6,7-tetrahydro-N-[1-(1H-imidazoL-1-ylmethyl)-2-methylpropyl]-5-methyl-3-(4-pyridinyl)-1H-indazole-5-carboxamide], 1000 to 100000 nM; as for `CC1(C(=O)Nc2ccccc2OC(F)(F)F)CCc2[nH]nc(-c3ccncc3)c2C1` (stereo not drawn) [Compound 17, 4,5,6,7-tetrahydro-5-methyl-3-(4-pyridinyl)-N-[2-(trifluoromethoxy)phenyl]-1H-indazole-5-carboxamide], 1000 to 100000 nM.
With `COc1ncccc1NC(=O)C1(C)CCc2[nH]nc(-c3ccncc3)c2C1` (stereo not drawn) [Compound 18, 4,5,6,7-tetrahydro-N-(2-methoxy-3-pyridinyl)-5-methyl-3-(4-pyridinyl)-1H-indazole-5-carboxamide], the IC50 was 1000 to 100000 nM.
To `CN(C)CCOc1ccccc1NC(=O)C1(C)CCc2[nH]nc(-c3ccncc3)c2C1` (stereo not drawn) [Compound 19, N-[2-[2-(dimethylamino)-ethoxy]phenyl]-4,5,6,7-tetrahydro-5-methyl-3-(4-pyridinyl)-1H-indazole-5-carboxamide] belongs 1000 to 100000 nM; to `CC1(C(=O)Nc2ccccc2OCC2CCCO2)CCc2[nH]nc(-c3ccncc3)c2C1` (stereo not drawn) [Compound 20, 4,5,6,7-tetrahydro-5-methyl-3-(4-pyridinyl]-N-[2 [(tetrahydro-2-furanyl)-methoxy]phenyl]-1H-indazole-5-carboxamide], 1000 to 100000 nM; to `CC1(C(=O)Nc2ccccc2OCCN2CCCCC2)CCc2[nH]nc(-c3ccncc3)c2C1` (stereo not drawn) [Compound 21, 4,5,6,7-tetrahydro-5-methyl-N-[2-[2-(1-piperidinyl)ethoxy]-phenyl]-3-(4-pyridinyl)-1H-indazole-5-carboxamide], 1000 to 100000 nM.
The compound `CN(C)c1ccc(CC(=O)N2CCc3[nH]nc(-c4ccncc4)c3C2)cc1` [Compound 22, 5[[4-(dimethylamino)-phenyl]acetyl]-4,5,6,7-tetrahydro-3-(4-pyridinyl)-1H-pyrazolo[4,3-c]pyridine] returned a half-maximal inhibitory concentration (IC50) of 101 to 1000 nM.
`COc1ccc(OC)c(CC(=O)N2CCc3[nH]nc(-c4ccncc4)c3C2)c1` [Compound 23, 5-[(2,5-dimethoxyphenyl)-acetyl]-4,5,6,7-tetrahydro-3-(4-pyridinyl)-1H-pyrazolo[4,3-c]pyridine] had an IC50 of 101 to 1000 nM.
As for `O=C(Cc1ccccc1F)N1CCc2[nH]nc(-c3ccncc3)c2C1` [Compound 24, 5-[(2-fluorophenyl)acetyl]-4,5,6,7-tetrahydro-3-(4-pyridinyl)-1H-pyrazolo[4,3-c]pyridine], the IC50 was in the range of 101 to 1000 nM.
As for `O=C(Cc1cccnc1)N1CCc2[nH]nc(-c3ccncc3)c2C1` [Compound 25, 4,5,6,7-tetrahydro-3-(4-pyridinyl)-5-(3-pyridinylacetyl)-1H-pyrazolo[4,3-c]pyridine], the figure is 101 to 1000 nM.
To `O=C(Cc1ccccc1C(F)(F)F)N1CCc2[nH]nc(-c3ccncc3)c2C1` [Compound 26] belongs 101 to 1000 nM.
As for `O=C(Cc1c(F)cccc1Cl)N1CCc2[nH]nc(-c3ccncc3)c2C1` [Compound 27, 5-[(2-chloro-6-fluorophenyl)acetyl]-4,5,6,7-tetrahydro-3-(4-pyridinyl)-1H-pyrazolo[4,3-c]pyridine], the figure is 101 to 1000 nM; as for `O=C(N1CCc2[nH]nc(-c3ccncc3)c2C1)C1(c2ccc(Cl)cc2Cl)CC1` [Compound 28, 5-[[1-(2,4-dichlorophenyl)-cylcopropyl]carbonyl]-4,5,6,7-tetrahydro-3-(4-pyridinyl)-1H-pyrazolo[4,3-c]pyridine], 101 to 1000 nM.
Compound `O=C(Cc1ccccc1Oc1ccccc1)N1CCc2[nH]nc(-c3ccncc3)c2C1` [Compound 29, 4,5,6,7-tetrahydro-5-[(2-phenoxyphenyl)acetyl]-3-(4-pyridinyl)-1H-pyrazol[4,3-c]pyridine] displayed an IC50 of 101 to 1000 nM.
As for `O=C(Cc1ccccn1)N1CCc2[nH]nc(-c3ccncc3)c2C1` [Compound 30, 4,5,6,7-tetrahydro-3-(4-pyridinyl)-5-(2-pyridinylacetyl)-1H-pyrazolo[4,3-c]pyridine], the figure is 101 to 1000 nM.
To `CS(=O)(=O)c1cccc(CC(=O)N2CCc3[nH]nc(-c4ccncc4)c3C2)c1` [Compound 31] belongs 101 to 1000 nM.
As for `O=C(Cc1ccc(-c2ccccc2)cc1)N1CCc2[nH]nc(-c3ccncc3)c2C1` [Compound 32, 5-([1,1′-biphenyl]-4-ylacetyl)-4,5,6,7-tetrahydro-3-(4-pyridinyl)-1H-pyrazolo[4,3-c]pyridine], the figure is 101 to 1000 nM; as for `O=C(Cc1ccccc1-c1cccnc1)N1CCc2[nH]nc(-c3ccncc3)c2C1` [Compound 33, 4,5,6,7-tetrahydro-3-(4-pyridinyl)-5-[[2-(3-pyridinyl)phenyl]acetyl]-1H-pyrazolo[4,3-c]pyridine], 101 to 1000 nM; as for `O=C(C(CO)c1ccccc1)N1CCc2[nH]nc(-c3ccncc3)c2C1` (stereo not drawn) [Compound 38, 1,4,6,7-tetrahydro-gamma-oxo-beta-phenyl-3-(4-pyridinyl)-5H-pyrazolo[4,3-c]pyridine-5-propanol], 1000 to 100000 nM.
Regarding `O=C(C1CCCc2ccccc21)N1CCc2[nH]nc(-c3ccncc3)c2C1` (stereo not drawn) [Compound 39, 4,5,6,7-tetrahydro-3-(4-pyridinyl)-5-[(1,2,3,4-tetrahydro-1-naphthalenyl)carbonyl]-1H-pyrazolo[4,3-c]pyridine], the IC50 was in the range of 1000 to 100000 nM.
To `CC(C(=O)N1CCc2[nH]nc(-c3ccncc3)c2C1)c1ccccc1` (stereo not drawn) [Compound 40, 4,5,6,7-tetrahydro-5-(1-oxo-2-phenylpropyl)-3-(4-pyridinyl)-1H-pyrazolo[4,3-c]pyridine] belongs 1000 to 100000 nM.
On to `CC(C(=O)N1CCc2[nH]nc(-c3ccncc3)c2C1)c1ccccc1Cl` (stereo not drawn) [Compound 41, 5-[2-(2-chlorophenyl)-1-oxopropyl]-4,5,6,7-tetrahydro-3-(4-pyridinyl)-1H-pyrazolo[4,3-c]pyridine], for which the IC50 fell in the range of 1000 to 100000 nM.
Take `CCn1cc(Cl)c(NC(=O)N2CCc3[nH]nc(-c4ccncc4)c3C2)n1` [Compound 42, N-(4-chloro-1-ethyl-1H-pyrazol-3-yl)-1,4,6,7-tetrahydro-3-(4-pyridinyl)-5H-pyrazolo[4,3-c]pyridine-5-carboxamide]: the IC50 was 1000 to 100000 nM.
Regarding `O=C(NC1CNCC(c2ccccc2)C1)N1CCc2[nH]nc(-c3ccncc3)c2C1` (stereo not drawn) [Compound 47, 1,4,6,7-tetrahydro-N-(5-phenyl-3-piperidinyl)-3-(4-pyridinyl)-5H-pyrazolo[4,3-c]pyridine-5-carboxamide], the IC50 was less than 20 nM.
Take `CN1CC(NC(=O)N2CCc3[nH]nc(-c4ccncc4)c3C2)CC(c2ccccc2)C1` (stereo not drawn) [Compound 49, 1,4,6,7-tetrahydro-N-(1-methyl-5-phenyl-3-piperidinyl)-3-(4-pyridinyl)-5H-pyrazolo[4,3-c]pyridine-5-carboxamide]: the IC50 is less than 20 nM.
The compound `O=C(CC1CCCNC1)N1CCc2[nH]nc(-c3ccncc3)c2C1` (stereo not drawn) [Compound 51, 4,5,6,7-tetrahydro-5-(3-piperidinylacetyl)-3-(4-pyridinyl)-1H-pyrazolo[4,3-c]pyridine] displayed an IC50 of 101 to 1000 nM.
